This is an account of results in PMC8086157, “Cryo-EM structure of a thermostable bacterial nanocompartment” (IUCrJ, 2021).

In this experiment the target is T1, T. maritima encapsulin (TmEnc) (Thermotoga maritima, UniProt Q9WZP2).
T1 construct: gene enc; codon-optimized gene in pET-11a, E. coli Rosetta2 (DE3); no tag mentioned; icosahedral shell without cargo protein; flavin site formed by three subunits
T1 sequence (Q9WZP2 1-265): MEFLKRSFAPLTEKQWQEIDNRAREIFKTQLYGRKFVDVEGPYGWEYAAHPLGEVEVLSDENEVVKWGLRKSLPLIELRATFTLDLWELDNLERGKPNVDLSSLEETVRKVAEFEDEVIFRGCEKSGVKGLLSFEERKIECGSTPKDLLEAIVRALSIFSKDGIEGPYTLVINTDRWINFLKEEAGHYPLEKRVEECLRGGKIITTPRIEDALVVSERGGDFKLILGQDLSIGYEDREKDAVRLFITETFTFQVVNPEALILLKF
Put plainly: cryo-EM structure ([…] Å). It counts as binding. The settings on record: co-purified from E. coli lysate through 80°C step; exact flavin identity ambiguous, FMN modelled; exterior site near threefold axis, stacks on Trp87; Tris pH 8.0, 150 mM NaCl.

Regarding `Cc1cc2nc3c(=O)[nH]c(=O)nc-3n(C[C@H](O)[C@H](O)[C@H](O)COP(=O)(O)O)c2cc1C` [flavin mononucleotide], the “cryo-EM structure (2.0 Å)” value was “flavin mononucleotide (FMN) seems to be consistent with the density and has been modeled”.
